Reference: ChEMBL document CHEMBL1201862, “PubChem BioAssay data set” (2004)
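Cultured in 96-well plates, cells were exposed to test compound for 48 hours across five concentrations. GI50: concentration for 50% inhibition of growth.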 The source made the active and inactive calls. Rule as the data show it: active = GI50 up to about 1.1 µM and inactive = higher.

Key:
Assay in all cases: NCI anticancer screen, dose series, 48 h
TK-10 = system: TK-10
786-0 = system: 786-0
SR = system: SR
SF-268 = system: SF-268
SW-620 = system: SW-620
HL-60 = system: HL-60
EKVX = system: EKVX
ACHN = system: ACHN
IGROV-1 = system: IGROV-1
PC-3 = system: PC-3
COLO 205 = system: COLO 205
SK-MEL-28 = system: SK-MEL-28
HT-29 = system: HT-29
OVCAR-8 = system: OVCAR-8
NCI-H522 = system: NCI-H522
HCT-15 = system: HCT-15
RPMI-8226 = system: RPMI-8226
OVCAR-3 = system: OVCAR-3
NCI-H226 = system: NCI-H226
SK-OV-3 = system: SK-OV-3

| SMILES | GI50 (TK-10) | GI50 (786-0) | GI50 (SR) | GI50 (SF-268) | GI50 (SW-620) | GI50 (HL-60) | GI50 (EKVX) | GI50 (ACHN) | GI50 (IGROV-1) | GI50 (PC-3) | GI50 (COLO 205) | GI50 (SK-MEL-28) | GI50 (HT-29) | GI50 (OVCAR-8) | GI50 (NCI-H522) | GI50 (HCT-15) [µM] | GI50 (RPMI-8226) | GI50 (OVCAR-3) | GI50 (NCI-H226) | GI50 (SK-OV-3) |
| --- | --- | --- | --- | --- | --- | --- | --- | --- | --- | --- | --- | --- | --- | --- | --- | --- | --- | --- | --- | --- |
| COc1ccc(CCNCCCC2c3ccccc3-c3ccccc32)cc1OC | 14.4 µM (inactive) | 15 µM (inactive) | 8.22 µM (inactive) | 15.1 µM (inactive) | 7.33 µM (inactive) | 12.9 µM (inactive) | 16.3 µM (inactive) | 16.1 µM (inactive) | 13.6 µM (inactive) | 16.3 µM (inactive) | 1.86 µM (inactive) | 9.44 µM (inactive) | 5.06 µM (inactive) | 16.6 µM (inactive) | 15.9 µM (inactive) | 14.8 | 6.3 µM (inactive) | 16.7 µM (inactive) | 15.4 µM (inactive) | 18.9 µM (inactive) |
| CC[C@H](C)C1=C(O)[N@+]2([O-])Oc3ccc(-c4c(O)c(O)c(-c5ccc(O)cc5)c(OC(C)=O)c4OC(C)=O)cc3O[C@]2([C@@H](C)CC)C(=O)N1O | 24.3 µM (inactive) | 47.2 µM (inactive) | 23.5 µM (inactive) | 27.5 µM (inactive) | 15.7 µM (inactive) | 17.7 µM (inactive) | > 50 µM (inactive) | 22.5 µM (inactive) | 6.4 µM (inactive) | 22.2 µM (inactive) | > 50 µM (inactive) | 46.8 µM (inactive) | 15.7 µM (inactive) | 27 µM (inactive) | 7.85 µM (inactive) | 17 | 10.6 µM (inactive) | 19.8 µM (inactive) | – | 15.9 µM (inactive) |
| CC(=O)OC1OC(c2ccoc2)C[C@@]12C1CCC3O[C@]3(C)[C@]1(C)C[C@H](OC(C)=O)[C@H]2C (stereo not given in full) | > 75 µM (inactive) | > 75 µM (inactive) | > 75 µM (inactive) | > 75 µM (inactive) | > 75 µM (inactive) | 42.9 µM (inactive) | > 75 µM (inactive) | > 75 µM (inactive) | > 75 µM (inactive) | 44.7 µM (inactive) | > 75 µM (inactive) | > 75 µM (inactive) | > 75 µM (inactive) | > 75 µM (inactive) | > 75 µM (inactive) | > 75 | 44 µM (inactive) | > 75 µM (inactive) | > 75 µM (inactive) | > 75 µM (inactive) |
| N#Cc1c2ccc([N+](=O)[O-])cc2c(=O)n2c1[nH]c1ccc(C(F)(F)F)cc12 | 99.5 µM (inactive) | 40.6 µM (inactive) | 4.07 µM (inactive) | 39.6 µM (inactive) | 14.4 µM (inactive) | 0.254 µM (active) | > 100 µM (inactive) | 48 µM (inactive) | 34.2 µM (inactive) | > 38.2 µM (inactive) | 16.9 µM (inactive) | 24.2 µM (inactive) | 11.2 µM (inactive) | 33.1 µM (inactive) | 7.28 µM (inactive) | 16.1 | 4.48 µM (inactive) | 18.2 µM (inactive) | 14.3 µM (inactive) | 41.9 µM (inactive) |
| CCOC(=O)c1cc2c3c(c(C(C)=O)c(O)c2[nH]1)N(CC(C)CC)CC3 (stereo not given) | > 100 µM (inactive) | 49.2 µM (inactive) | 27.4 µM (inactive) | 35 µM (inactive) | > 100 µM (inactive) | 28.8 µM (inactive) | 38.9 µM (inactive) | > 100 µM (inactive) | > 100 µM (inactive) | 66.8 µM (inactive) | > 100 µM (inactive) | > 100 µM (inactive) | > 100 µM (inactive) | 61.7 µM (inactive) | 24.2 µM (inactive) | 70.3 | 36.1 µM (inactive) | – | 41.5 µM (inactive) | 60.8 µM (inactive) |
| COCCOC1=C(Cl)C(=O)c2c(O)ccc(O)c2C1=O | 1.47 µM (inactive) | 1.62 µM (inactive) | 0.78 µM (active) | 4.71 µM (inactive) | 0.444 µM (active) | 0.111 µM (active) | 4.97 µM (inactive) | 1.11 µM (active) | 3.08 µM (inactive) | 4.62 µM (inactive) | 0.838 µM (active) | 2.27 µM (inactive) | 2.37 µM (inactive) | 1.63 µM (inactive) | 0.681 µM (active) | 1.21 | 0.741 µM (active) | 1.09 µM (active) | 12.1 µM (inactive) | 16.8 µM (inactive) |
| CCOC(=O)C1=C(Cl)c2cccnc2C1=O | > 100 µM (inactive) | 44 µM (inactive) | 11.4 µM (inactive) | 55.2 µM (inactive) | 30.3 µM (inactive) | > 100 µM (inactive) | 62.5 µM (inactive) | 35.4 µM (inactive) | 52.8 µM (inactive) | > 100 µM (inactive) | 43.4 µM (inactive) | > 100 µM (inactive) | 81.7 µM (inactive) | – | 86.5 µM (inactive) | 53.7 | 87.3 µM (inactive) | 19.8 µM (inactive) | > 100 µM (inactive) | > 100 µM (inactive) |
| C=CCn1c(N)c(C#N)c(C#N)c1CCC | > 100 µM (inactive) | > 100 µM (inactive) | 22.5 µM (inactive) | > 100 µM (inactive) | > 100 µM (inactive) | > 100 µM (inactive) | 42.7 µM (inactive) | > 100 µM (inactive) | > 100 µM (inactive) | > 100 µM (inactive) | > 100 µM (inactive) | – | > 100 µM (inactive) | > 100 µM (inactive) | > 100 µM (inactive) | > 100 | > 100 µM (inactive) | 74.6 µM (inactive) | > 100 µM (inactive) | > 100 µM (inactive) |
| CCC(=O)Nc1ccc(N2C(=O)/C(=C/c3ccc(O)c(OC)c3)N=C2c2ccccc2)cc1 | – | 24 µM (inactive) | 13.2 µM (inactive) | 27 µM (inactive) | 51.2 µM (inactive) | 24 µM (inactive) | 17.8 µM (inactive) | 23.3 µM (inactive) | 31.1 µM (inactive) | 16.5 µM (inactive) | – | 25.6 µM (inactive) | 33.7 µM (inactive) | 44.5 µM (inactive) | 37.6 µM (inactive) | 21.3 | 6.82 µM (inactive) | 28.3 µM (inactive) | 19.5 µM (inactive) | 31 µM (inactive) |
| COc1ccc2c(c1)CC1C3(CCCCC23)CC[N+]1(C)C (stereo not given) | > 100 µM (inactive) | > 100 µM (inactive) | > 100 µM (inactive) | 90.8 µM (inactive) | – | 50.5 µM (inactive) | > 100 µM (inactive) | > 100 µM (inactive) | > 100 µM (inactive) | > 100 µM (inactive) | > 100 µM (inactive) | > 100 µM (inactive) | > 100 µM (inactive) | > 100 µM (inactive) | 58.9 µM (inactive) | > 100 | > 100 µM (inactive) | 75.5 µM (inactive) | > 100 µM (inactive) | > 100 µM (inactive) |
| C[C@H]1C/C=C/[C@H]2[C@@H]3O[C@]3(C)[C@@H](C)[C@H]3[C@H](Cc4ccccc4)NC(=O)[C@]32OC(=O)O/C=C/[C@@](C)(O)C1=O [CYTOCHALASIN E] | < 0.01 µM (active) | 0.114 µM (active) | 0.065 µM (active) | 0.0638 µM (active) | 21.8 µM (inactive) | 0.0838 µM (active) | 0.075 µM (active) | < 0.01 µM (active) | – | 0.0141 µM (active) | – | 0.2 µM (active) | 0.0194 µM (active) | 23.6 µM (inactive) | 0.0431 µM (active) | 0.0834 | 0.556 µM (active) | 0.0975 µM (active) | 0.0333 µM (active) | 0.0292 µM (active) |
| CCCC(=O)NC(NC1CCCCC1)(C(=O)OCC)C(F)(F)F (stereo not given) | > 100 µM (inactive) | > 100 µM (inactive) | > 100 µM (inactive) | > 100 µM (inactive) | > 100 µM (inactive) | > 100 µM (inactive) | > 100 µM (inactive) | > 100 µM (inactive) | > 100 µM (inactive) | > 100 µM (inactive) | – | > 100 µM (inactive) | > 100 µM (inactive) | > 100 µM (inactive) | > 100 µM (inactive) | > 100 | > 100 µM (inactive) | > 100 µM (inactive) | > 100 µM (inactive) | > 100 µM (inactive) |
| O=C(NCCC1([N+](=O)[O-])CCN(C(=O)c2ccccc2)CC1)c1ccccc1 | > 100 µM (inactive) | > 100 µM (inactive) | > 100 µM (inactive) | > 100 µM (inactive) | > 100 µM (inactive) | > 100 µM (inactive) | > 100 µM (inactive) | > 100 µM (inactive) | > 100 µM (inactive) | > 100 µM (inactive) | 53.7 µM (inactive) | – | 45.6 µM (inactive) | > 100 µM (inactive) | > 100 µM (inactive) | > 100 | 58.7 µM (inactive) | – | > 100 µM (inactive) | > 100 µM (inactive) |
| Cc1ccc(C(C)C)c(OCC(=O)N/N=C/c2c[nH]c3ccc(Br)cc23)c1 | 2.4 µM (inactive) | 3.42 µM (inactive) | 0.698 µM (active) | 7.85 µM (inactive) | 3.61 µM (inactive) | 2.37 µM (inactive) | 2.86 µM (inactive) | 4.85 µM (inactive) | 2 µM (inactive) | 0.625 µM (active) | 1.69 µM (inactive) | 8.93 µM (inactive) | 2.11 µM (inactive) | 3.95 µM (inactive) | 1.43 µM (inactive) | 2.1 | 2.47 µM (inactive) | 2.19 µM (inactive) | – | 2.58 µM (inactive) |
| Cc1c(C)c2c(c(N)c1C#N)C(=O)N(OS(=O)(=O)c1ccccc1)C2=O | 18 µM (inactive) | 16.4 µM (inactive) | 27 µM (inactive) | 95.1 µM (inactive) | 20.8 µM (inactive) | 30.1 µM (inactive) | 18.9 µM (inactive) | 18.5 µM (inactive) | 18.5 µM (inactive) | 35.6 µM (inactive) | 21.8 µM (inactive) | 24.5 µM (inactive) | – | 17.8 µM (inactive) | 17.1 µM (inactive) | 20.9 | 15.1 µM (inactive) | 22.2 µM (inactive) | 18.5 µM (inactive) | – |
